pIC50: −log10 of the molar value. Active and inactive are the calls of the source. The calls are words filed in the database; no cut-off is given here.
Legend:
Bacillus subtilis = experiment: Antimicrobial activity against Bacillus subtilis DSM 347 incubated for 5 hrs by resazurin dye based assay; assay type: functional, organism-based; details: DSM 347, 5 h
[1] = Toxicity against human KIF5 cells incubated for 24 hrs by CellTiter Blue cell viability assay; assay type: cell-based
Acetylcholinesterase = Acetylcholinesterase (Homo sapiens, UniProt P22303); experiment: Inhibition of human AChE pre-incubated for 10 mins before acetylthiocholine iodide substrate addition
Xanthomonas campestris = experiment: Antimicrobial activity against Xanthomonas campestris DSM 2405 incubated for 6 hrs by resazurin dye based assay; assay type: functional, organism-based
Candida albicans = experiment: Antimicrobial activity against Candida albicans DSM 1386 incubated for 5 hrs by resazurin dye based assay; assay type: functional, organism-based

Acetylcholinesterase, sequence (P22303 whole entry): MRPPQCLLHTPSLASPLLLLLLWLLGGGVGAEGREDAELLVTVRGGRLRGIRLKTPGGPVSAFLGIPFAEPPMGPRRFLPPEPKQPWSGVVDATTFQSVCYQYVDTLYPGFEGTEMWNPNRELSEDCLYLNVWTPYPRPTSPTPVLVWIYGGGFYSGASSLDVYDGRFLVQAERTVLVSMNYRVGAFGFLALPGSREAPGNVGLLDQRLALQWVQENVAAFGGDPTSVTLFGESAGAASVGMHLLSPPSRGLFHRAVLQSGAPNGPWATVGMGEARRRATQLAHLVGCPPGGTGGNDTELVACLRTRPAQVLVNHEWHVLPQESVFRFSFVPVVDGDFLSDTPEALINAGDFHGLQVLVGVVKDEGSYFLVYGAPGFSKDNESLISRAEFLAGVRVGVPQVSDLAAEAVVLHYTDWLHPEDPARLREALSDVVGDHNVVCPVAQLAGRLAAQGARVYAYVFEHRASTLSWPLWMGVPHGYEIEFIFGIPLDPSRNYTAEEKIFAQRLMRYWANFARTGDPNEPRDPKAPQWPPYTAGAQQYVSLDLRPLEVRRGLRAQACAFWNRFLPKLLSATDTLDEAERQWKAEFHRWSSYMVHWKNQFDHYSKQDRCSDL

| Compound | pIC50 (Bacillus subtilis) | IC50 at 24 h [1] [µM] | pIC50 (Acetylcholinesterase) | Activity (Xanthomonas campestris) | Activity (Candida albicans) |
| --- | --- | --- | --- | --- | --- |
| Oc1cccc2nc3c(O)cccc3nc12 | 4.66 | > 50 | 5.34 | – | – |
| Oc1ccc2nc3ccccc3nc2c1 | 4.12 | > 50 | < 4.30 | – | – |
| O=C(N[C@H](CO)[C@H](O)c1ccc([N+](=O)[O-])cc1)C(Cl)Cl [CHLORAMPHENICOL] | 5.84 | – | – | – | – |
| CC(=O)Oc1cccc2nc3c(OC(C)=O)ccc(C/C=C(\C)CCC=C(C)C)c3nc12 [DIACETYLGERANYLPHENAZINEDIOL] | 4.89 | > 50 | 5.70 | inactive | inactive |
| CC(C)=CCc1cccc2nc3cccc(C(=O)O)c3nc12 [ENDOPHENAZINE A] | 3.95 | > 10 | < 4.30 | – | – |
| CC(C)=CCc1cc(=O)cc2n(C)c3cccc(C(=O)O)c3nc1-2 [ENDOPHENAZINE B] | < 3.82 | > 50 | < 4.30 | – | – |
| CC(C)=CCC/C(C)=C/Cc1ccc(O)c2nc3cccc(O)c3nc12 [GERANYLPHENAZINEDIOL] | 4.62 | > 50 | 5.58 | inactive | inactive |
| O=C(O)c1cccc2nc3ccccc3nc12 [PHENAZINE-1-CARBOXYLIC ACID] | < 3.82 | > 50 | < 4.30 | – | – |
| CC/C(=C(\c1ccccc1)c1ccc(OCCN(C)C)cc1)c1ccccc1 [TAMOXIFEN] | – | 23.8 | – | – | – |

Source: ChEMBL document CHEMBL2069170, “Geranylphenazinediol, an acetylcholinesterase inhibitor produced by a Streptomyces species” (J Nat Prod, 2012)
